Laboratory results taken from publication PMC7803973, “Structural basis of malaria parasite phenylalanine tRNA-synthetase inhibition by bicyclic azetidines” (Nature Communications, 2021).
Values joined by “and” are separate entries in the source; they are usually repeats but may differ in a detail not shown here. Equal entries are not always repeated.

System: Plasmodium falciparum strain K1
Test: microbe, parasite or virus in culture
Assay type: cell-based
Method: The cultivation of P. falciparum was conducted according to Trager’s method with some modification. Precisely, parasites were kept in culture flasks with RPMI1640 medium supplemented with 10% human plasma and 2% fresh human erythrocytes and incubated at 37 °C with the gas condition of 5% CO2 and 5% O2. The parasitemia (percentage of infected erythrocytes to total erythrocytes) were kept within 0.25–10%. Culture medium was replaced, and fresh erythrocytes were supplied every 2–3 days. Drug susceptibility test was conducted according to Desjardins’s method[18] with some modification. […] […] The plates were kept at 37 °C with the gas condition of 5% CO2 and 5% O2 for 72 h and then parasite growth was quantified with Makler’s method to detect plasmdoial lactate dehydrogenase[19] with some modification. Precisely, culture plates were kept in freezer overnight and then thawed at 37 °C to disrupt the erythrocytes and parasite cells. In the new 96-well titer plates, 100 μl of enzyme reaction solution (110 mM Li-lactate, 0.5 mM acetylpyridine-adenine dinucleotide, 50 mM Tris (pH 7.5), 10 mM EDTA, 50 mM KCl, and 15 g l^−1 PEG6000) and 20 µl of freeze-thaw culture were mixed in each well and then kept at room temperature for 30 min. The detection solution was prepared by mixing equal volume of 2 mg ml^−1 nitro blue tetrazolium and 0.1 mg ml^−1 phenazine ethosulfate and 20 µl of the solution was added to each well.

SMILES: COC[C@@H]1[C@H](c2ccc(C#Cc3ccccc3)cc2)[C@@H]2CN(C(=O)Nc3ccc(OC4CC4)cc3)C[C@@H](O)[C@@H](O)CN12 [BRD1389]
- % Parasite Growth (K1, 0.000976562 ug/mL): 92.8%
- % Parasite Growth (K1, 0.00195312 ug/mL): 94.4%
- % Parasite Growth (K1, 0.00390625 ug/mL): 90.7%
- % Parasite Growth (K1, 0.0078125 ug/mL): 40.5%
- % Parasite Growth (K1, 0.015625 ug/mL): 14.2%
- % Parasite Growth (K1, 0.03125 ug/mL): 15.9%
- % Parasite Growth (K1, 0.0625 ug/mL): 4.7%
- % Parasite Growth (K1, 0.125 ug/mL): 2.9%
- % Parasite Growth (K1, 0.25 ug/mL): 2.1%
- % Parasite Growth (K1, 0.5 ug/mL): 2.6%
- % Parasite Growth (K1, 1 ug/mL): 2.6%
- IC50 (Plasmodium falciparum, K1): 0.00685 µg/mL and 12.1 nM
- EC50 (Plasmodium falciparum, K1, 72 h): 12 nM
